The text below walks through data of patent US20250312499A1, “KISSPEPTIN RECEPTOR (KISS1R) TARGETED THERAPEUTICS AND USES THEREOF” (priority 2024, published 2025).

One may read the Ki as the dissociation constant of the complex between target and ligand, obtained from inhibition or displacement.

Numbered stars: 1 amine (or outer) side, 2 acyl side, 3 side chain; on linkers, the order of the positions; unused ones are H or OH. Square brackets hold non-standard residues; d marks the D form. Peptide text beside a SMILES is read from it. * marks the point of attachment. X8 = COCCOCCOCCOCCOCCOCCOCCOCCOCCOCCOCCOCCOCCOCCOCCOCCOCCOCCOCCOCCOCCOCCOCCOCCOCCC(=O)*; DOTA = O=C(O)CN1CCN(CC(=O)O)CCN(CC(=O)*)CCN(CC(=O)O)CC1; Gly(N-(3-F-4-Me-benzyl)) = Cc1ccc(CNCC(=O)*)cc1F; Gly(N-3-F-4-Me-benzyl) = Cc1ccc(CNCC(=O)O)cc1F; Bpa = N[C@@H](Cc1ccc(C(=O)c2ccccc2)cc1)C(=O)O; Api(1-amidino) = N=C(N)N1CCC(N)(C(=O)O)CC1; Hydrocinnamoyl(4-Me) = Cc1ccc(CCC(=O)*)cc1; Bip = N[C@@H](Cc1ccc(-c2ccccc2)cc1)C(=O)O; Phe(4-CN) = N#Cc1ccc(C[C@H](N)C(=O)O)cc1; X3 = CNC(=N)N1CCC(N[*:1])(C(=O)[*:2])CC1; Phe(3-F) = N[C@@H](Cc1cccc(F)c1)C(=O)O; 2Nal = N[C@@H](Cc1ccc2ccccc2c1)C(=O)O; 4Pal = N[C@@H](Cc1ccncc1)C(=O)O; Cha = N[C@@H](CC1CCCCC1)C(=O)O; Api = NC1(C(=O)O)CCNCC1; PEG2 = NCCOCCOCCC(=O)O; Ahx = NCCCCCC(=O)O; azaGly = NNC(=O)O; Sar = CNCC(=O)O

For this test, the target named is human kisspeptin receptor (Homo sapiens (Human), UniProt Q969F8). Nature of the test: Human KISS1R binding assay (membrane competition binding). The following applies: 90 min at room temperature; competition with 0.2 nM [125I]-metastin (45-54); Flp-In T-Rex 293 kisspeptin membranes; metal complexes nonradioactive Ga, In, Lu; read-out: hKiSSR Binding Ki (90 min). The method, then:
Crude membrane fractions are prepared from Flp-In T-Rex 293 (Thermo Fisher) cell line expressing the human kisspeptin receptor. The cells are grown to 85-100% confluence on standard tissue culture dishes in Dulbecco's Modified Eagles Medium (DMEM) (Corning) supplemented with 10% FBS (Gemini), 1% penicillin-streptomycin-glutamine (Gibco), 500 μg/mL hygromycin, and 15 μg/mL blastacidin. 48 hrs prior to preparing membranes 10 μg/ml of tetracycline is added to the culture media to induce receptor expression. To prepare membranes, cells are scraped and collected in 1× Dulbecco's phosphate buffered saline (Corning) and then pelleted at 1000 RPMs. The cell pellet is reconstituted in membrane preparation buffer (20 mM HEPES, 6 mM MgCl2 and 1 mM EGTA, protease inhibitor tablets (Pierce), pH 7.4) and placed in a cell disruption vessel (Parr Instrument company) at 1000 PSI for 30 min on ice. The pressurized contents are then released and spun down at 1000 RPMs and the supernatant is collected and further centrifuged at 15,000 RPMs to pellet the membranes. The membrane pellet is resuspended in membrane preparation buffer, snap frozen and stored at −80° C. for later use.
The human kisspeptin membrane binding assay utilizes the following components: radiolabel [^125I]-metastin (45-54) (human) (Perkinhmer), crude Flp-In T-Rex 293 kisspeptin membranes, and competing small molecule and peptide ligands. The assay is initiated by combining in assay buffer (50 mM TrisHCl, 5 mM MgCl2, 2 mM EGTA, 10 mM CaCl2, 0.1% BSA, pH 7.4) a dose response of competing ligand (final concentrations are typically 0-10,000 nM), 5-10 μg of Flp-In T-Rex 293 kisspeptin membranes, and 0.2 n M [^125I]-metastin (45-54) in a 96-well assay plate and allowed to incubate 90 minutes at room temperature. Assay contents are then filtered through unifilter CF/C: microplates (PerkinElmer) pre-soaked with 0.5% BSA and washed with 9×400 μL of cold wash buffer (10 mM HEPES, 500 mM NaCl, 0.1% Tween-20, pH7.4). Assay plates are read using a Microbeta^2 (PerkinElmer) and Ki values for compounds are determined using a GraphPad Prism 9.3 non-linear regression analysis.

Sequence of human kisspeptin receptor (Q969F8 whole entry): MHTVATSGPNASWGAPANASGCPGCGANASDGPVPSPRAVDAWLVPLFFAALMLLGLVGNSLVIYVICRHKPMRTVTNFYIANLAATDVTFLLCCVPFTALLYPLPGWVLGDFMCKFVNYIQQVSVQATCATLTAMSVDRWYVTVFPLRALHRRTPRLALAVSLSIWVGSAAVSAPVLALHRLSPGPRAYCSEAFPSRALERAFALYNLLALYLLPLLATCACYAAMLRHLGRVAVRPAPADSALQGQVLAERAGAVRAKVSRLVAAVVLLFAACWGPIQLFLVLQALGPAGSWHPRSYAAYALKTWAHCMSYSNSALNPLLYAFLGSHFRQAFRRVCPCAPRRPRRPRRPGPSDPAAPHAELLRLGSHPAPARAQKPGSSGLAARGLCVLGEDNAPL

`Cc1ccc(CNCC(=O)N2CCC(NC(=O)[C@H](CC(C)C)NC(=O)NNC(=O)[C@H](Cc3cccc(F)c3)NC(=O)[C@@H](NC(=O)[C@H](CC(N)=O)NC(=O)CCCCCNC(=O)CN3CCN(CC(=O)O)CCN(CC(=O)O)CCN(CC(=O)O)CC3)[C@@H](C)O)(C(=O)N[C@@H](Cc3ccncc3)C(N)=O)CC2)cc1F` [Compound 169] ({DOTA-Ahx}-NT[Phe(3-F)][azaGly]L[Api](Gly(N-(3-F-4-Me-benzyl)))[4Pal]-NH2): the inhibition constant (Ki) is under 10 nM.

Turning to `Cc1ccc(CNCC(=O)N2CCC(NC(=O)[C@H](CC(C)C)NC(=O)NNC(=O)[C@H](Cc3ccccc3)NC(=O)[C@@H](NC(=O)[C@H](CC(N)=O)NC(=O)[C@@H](Cc3c[nH]c4ccccc34)NC(=O)[C@H](CC(N)=O)NC(=O)[C@@H](Cc3ccc(O)cc3)NC(=O)CCCCCNC(=O)CN3CCN(CC(=O)O)CCN(CC(=O)O)CCN(CC(=O)O)CC3)[C@@H](C)O)(C(=O)N[C@@H](Cc3ccncc3)C(N)=O)CC2)cc1F` [Compound 106] ({DOTA-Ahx}-[dY]N[dW]NTF[azaGly]L[Api](Gly(N-(3-F-4-Me-benzyl)))[4Pal]-NH2), the Ki is under 10 nM.

As for `Cc1ccc(CNCC(=O)N2CCC(NC(=O)c3cccc(CNC(=O)[C@H](Cc4ccccc4)NC(=O)CCCCCNC(=O)CN4CCN(CC(=O)O)CCN(CC(=O)O)CCN(CC(=O)O)CC4)n3)(C(=O)N[C@@H](Cc3c[nH]c4ccccc34)C(N)=O)CC2)cc1F` [Compound 135], the Ki was over 100 nM.

`CC(C)C[C@H](NC(=O)NNC(=O)[C@H](Cc1ccccc1)NC(=O)[C@@H](NC(=O)[C@H](CC(N)=O)NC(=O)[C@H](Cc1ccc2ccccc2c1)NC(=O)[C@@H](Cc1ccc(O)cc1)NC(=O)CCCCCNC(=O)CN1CCN(CC(=O)O)CCN(CC(=O)O)CCN(CC(=O)O)CC1)[C@@H](C)O)C(=O)NC1(C(=O)N[C@@H](Cc2ccc(O)cc2)C(N)=O)CCN(C(=N)N)CC1` [Compound 276] ({DOTA-Ahx}-[dY][2Nal]NTF[azaGly]L[Api(1-amidino)]Y-NH2): the Ki is under 10 nM.

For the compound `CNCC(=O)N1CCC(NC(=O)[C@H](CC(C)C)NC(=O)NNC(=O)[C@H](Cc2ccccc2)NC(=O)[C@@H](NC(=O)[C@H](CC(N)=O)NC(=O)[C@H](CCCCNC(=O)CN2CCN(CC(=O)O)CCN(CC(=O)O)CCN(CC(=O)O)CC2)NC(=O)[C@@H](Cc2ccc(O)cc2)NC(=O)CCOCCOCCNC(=O)CNCc2ccc(C)c(F)c2)[C@@H](C)O)(C(=O)N[C@@H](Cc2c[nH]c3ccccc23)C(N)=O)CC1` [Compound 384] (H-[Gly(N-3-F-4-Me-benzyl)][PEG2][dY]K(DOTA)NTF[azaGly]L[Api](Sar)W-NH2), the inhibition constant Ki is under 10 nM.

With `CC(C)C[C@H](NC(=O)NNC(=O)[C@H](Cc1ccc(-c2ccccc2)cc1)NC(=O)[C@@H](NC(=O)[C@H](CC(N)=O)NC(=O)[C@@H](Cc1c[nH]c2ccccc12)NC(=O)[C@@H](Cc1ccc(O)cc1)NC(=O)CCCCCNC(=O)CN1CCN(CC(=O)O)CCN(CC(=O)O)CCN(CC(=O)O)CC1)[C@@H](C)O)C(=O)NC1(C(=O)N[C@@H](Cc2c[nH]c3ccccc23)C(N)=O)CCN(C(=N)N)CC1` [Compound 271] ({DOTA-Ahx}-[dY][dW]NT[Bip][azaGly]L[Api(1-amidino)]W-NH2), the Ki was in the range of 10 to 100 nM.

As to `Cc1ccc(CNCC(=O)N2CCC(NC(=O)[C@H](CC(C)C)NC(=O)NNC(=O)[C@H](Cc3ccccc3)NC(=O)[C@@H](NC(=O)[C@H](CC(N)=O)NC(=O)[C@H](Cc3ccc(C(=O)c4ccccc4)cc3)NC(=O)[C@@H](Cc3ccc(O)cc3)NC(=O)CCCCCNC(=O)CN3CCN(CC(=O)O)CCN(CC(=O)O)CCN(CC(=O)O)CC3)[C@@H](C)O)(C(=O)N[C@@H](Cc3c[nH]c4ccccc34)C(N)=O)CC2)cc1F` [Compound 364] ({DOTA-Ahx}-[dY][Bpa]NTF[azaGly]L[Api](Gly(N-(3-F-4-Me-benzyl)))W-NH2), the Ki was under 10 nM.

Regarding `Cc1ccc(CNCC(=O)N2CCC(NC(=O)[C@H](CC(C)C)NC(=O)NNC(=O)[C@H](Cc3ccccc3)NC(=O)[C@@H](NC(=O)[C@H](CC(N)=O)NC(=O)[C@@H](Cc3c[nH]c4ccccc34)NC(=O)[C@@H](Cc3ccc(O)cc3)NC(=O)CCCCCNC(=O)CN3CCN(CC(=O)O)CCN(CC(=O)O)CCN(CC(=O)O)CC3)[C@@H](C)O)(C(=O)N[C@@H](Cc3ccc(C#N)cc3)C(N)=O)CC2)cc1F` [Compound 104] ({DOTA-Ahx}-[dY][dW]NTF[azaGly]L[Api](Gly(N-(3-F-4-Me-benzyl)))[Phe(4-CN)]-NH2), the Ki was under 10 nM.

On to `CNCC(=O)N1CCC(NC(=O)[C@H](CC(C)C)NC(=O)NNC(=O)[C@H](CC2CCCCC2)NC(=O)[C@@H](NC(=O)[C@H](CC(N)=O)NC(=O)[C@H](CCCCNC(=O)CN2CCN(CC(=O)O)CCN(CC(=O)O)CCN(CC(=O)O)CC2)NC(=O)[C@@H](Cc2ccc(O)cc2)NC(=O)CCOCCOCCNC(=O)CCc2ccc(C)cc2)[C@@H](C)O)(C(=O)N[C@@H](Cc2c[nH]c3ccccc23)C(N)=O)CC1` [Compound 387] ({Hydrocinnamoyl(4-Me)-PEG2}-[dY]K(DOTA)NT[Cha][azaGly]L[Api](Sar)W-NH2), for which the Ki was under 10 nM.

As to `Cc1ccc(CCC(=O)NCCOCCOCCC(=O)N[C@H](Cc2ccc(O)cc2)C(=O)N[C@@H](CCCCNC(=O)CN2CCN(CC(=O)O)CCN(CC(=O)O)CCN(CC(=O)O)CC2)C(=O)N[C@@H](CC(N)=O)C(=O)N[C@H](C(=O)N[C@@H](Cc2ccccc2)C(=O)NNC(=O)N[C@@H](CC(C)C)C(=O)NC2(C(=O)N[C@@H](Cc3c[nH]c4ccccc34)C(N)=O)CCN(C(=N)N)CC2)[C@@H](C)O)cc1` [Compound 195] ({Hydrocinnamoyl(4-Me)-PEG2}-[dY]K(DOTA)NTF[azaGly]L[Api(1-amidino)]W-NH2), the inhibition constant (Ki) was under 10 nM.

On to `COCCOCCOCCOCCOCCOCCOCCOCCOCCOCCOCCOCCOCCOCCOCCOCCOCCOCCOCCOCCOCCOCCOCCOCCOCCC(=O)N[C@H](Cc1ccc(O)cc1)C(=O)N[C@@H](CCCCNC(=O)CN1CCN(CC(=O)O)CCN(CC(=O)O)CCN(CC(=O)O)CC1)C(=O)N[C@@H](CC(N)=O)C(=O)N[C@H](C(=O)N[C@@H](Cc1ccccc1)C(=O)NNC(=O)N[C@@H](CC(C)C)C(=O)NC1(C(=O)N[C@@H](Cc2c[nH]c3ccccc23)C(N)=O)CCN(C(=N)N)CC1)[C@@H](C)O` [Compound 182] (X8-[dY]K(DOTA)NTF[azaGly]L[Api(1-amidino)]W-NH2), for which the Ki is under 10 nM.

Regarding `CC(C)C[C@H](NC(=O)NNC(=O)[C@H](Cc1ccccc1)NC(=O)[C@@H](NC(=O)[C@H](CC(N)=O)NC(=O)[C@@H](Cc1c[nH]c2ccccc12)NC(=O)[C@@H](Cc1ccc(O)cc1)NC(=O)CCCCCNC(=O)CN1CCN(CC(=O)O)CCN(CC(=O)O)CCN(CC(=O)O)CC1)[C@@H](C)O)C(=O)NC1(C(=O)N[C@@H](Cc2c[nH]c3ccccc23)C(N)=O)CCN(C(=N)N)CC1` [Compound 6] ({DOTA-Ahx}-[dY][dW]NTF[azaGly]L[Api(1-amidino)]W-NH2), the Ki is under 10 nM.

For `CNC(=N)N1CCC(NC(=O)[C@H](CC(C)C)NC(=O)NNC(=O)[C@H](Cc2ccccc2)NC(=O)[C@@H](NC(=O)[C@H](CC(N)=O)NC(=O)[C@@H](Cc2c[nH]c3ccccc23)NC(=O)[C@@H](Cc2ccc(O)cc2)NC(=O)CCCCCNC(=O)CN2CCN(CC(=O)O)CCN(CC(=O)O)CCN(CC(=O)O)CC2)[C@@H](C)O)(C(=O)N[C@@H](Cc2c[nH]c3ccccc23)C(N)=O)CC1` [Compound 91] ({DOTA-Ahx}-[dY][dW]NTF[azaGly]L[X3]W-NH2), the Ki is under 10 nM.
